Holding throughout (format): biochemical
What all share (settings): 21° C., 20 mM Tricine pH 7.8, 470 μM D-luciferin, ATP 6.25-800 μM, crude cell extract

Assay [1] addresses T1, Photinus pyralis luciferase, recombinant wild type (r Wild Type), luc gene SEQ ID NO: 1 (Photinus pyralis, UniProt P08659).
T1 construct: made in house; host or cells: E. coli JM109, crude lysed cell extract, plasmid pPW601a
The assay can be described thus: Luciferase assay of Km for MgATP, recombinant wild type. The protocol:
(§1) CELL CULTURE AND EXTRACTION: E. coli JM109 transformants were grown to an OD600 =1.0. Aliquots of cells expressing mutant luciferases from plasmid pPW601a, were subjected to lysis as described in the Promega technical bulletin and the lysed extracts were then stored on ice prior to assay.
(§2) ASSAY OF Km OF MUTANT LUCIFERASES: luciferase assays were performed at 21° C. using 100 μl of assay buffer (20 mM Tricine pH 7.8 containing 2.0 mM MgSO4, 0.1 mM EDTA, 33 mM dithiotheitol, 470 μM D-luciferin and ATP in the concentration range 6.25-800 μM). Each assay contained 5-10 μl of crude cell extract.
(§3) Such plots kan be used to determine the Km.

Assay [2] addresses T2, Photinus pyralis luciferase mutant H245A (His245Ala) (Photinus pyralis, UniProt P08659, H245A).
T2 construct: made in house; host or cells: E. coli JM109, crude lysed cell extract, plasmid pPW601a
The assay can be described thus: Luciferase assay of Km for MgATP, mutant H245A. The protocol: (§4) SITE DIRECTED MUTAGENESIS: Three mutagenic oligonucleotides were used to create the mutations H245A, N and Q (Ala, Asn, or Gln--see Seq ID Nos. 2, 3 & 4). The equivalent wild-type sequence is shown at Seq ID No. 5. […] The mutagenesis was carried out in accordance with the kit instructions of kit supplied by Clontech laboratories Inc, Palo Alto, Calif. USA.
as §1, §2, §3

Assay [3] addresses T3, Photinus pyralis luciferase mutant H245N (His245Asn) (Photinus pyralis, UniProt P08659, H245N).
T3 construct: made in house; host or cells: E. coli JM109, crude lysed cell extract, plasmid pPW601a
The assay can be described thus: Luciferase assay of Km for MgATP, mutant H245N. The protocol:
as §4, §1, §2, §3

Assay [4] addresses T4, Photinus pyralis luciferase mutant H245Q (His245Gln), SEQ ID NO: 6 (Photinus pyralis, UniProt P08659, H245Q).
T4 construct: ID No. 6; made in house; host or cells: E. coli JM109, crude lysed cell extract, plasmid pPW601a
The assay can be described thus: Luciferase assay of Km for MgATP, mutant H245Q. The protocol: as §4
The amino acid sequence of H245Q is shown in Seq. ID No. 6.
as §1, §2, §3

Assay [5] addresses Photinus pyralis luciferase thermostable mutant A215L (printed A21SL) (Photinus pyralis, UniProt P08659, A215L). The assay can be described thus: Luciferase assay of Km for MgATP, thermostable mutant A215L. The protocol: as §1, §2, §3
*A215L is a thermostable mutant in which amino acid 215 is substituted with
lysine (see WO 96/22376 - SECRETARY OF STATE FOR DEFENCE).

Chain of Photinus pyralis luciferase thermostable mutant A215L (printed A21SL) (P08659 whole entry A215L): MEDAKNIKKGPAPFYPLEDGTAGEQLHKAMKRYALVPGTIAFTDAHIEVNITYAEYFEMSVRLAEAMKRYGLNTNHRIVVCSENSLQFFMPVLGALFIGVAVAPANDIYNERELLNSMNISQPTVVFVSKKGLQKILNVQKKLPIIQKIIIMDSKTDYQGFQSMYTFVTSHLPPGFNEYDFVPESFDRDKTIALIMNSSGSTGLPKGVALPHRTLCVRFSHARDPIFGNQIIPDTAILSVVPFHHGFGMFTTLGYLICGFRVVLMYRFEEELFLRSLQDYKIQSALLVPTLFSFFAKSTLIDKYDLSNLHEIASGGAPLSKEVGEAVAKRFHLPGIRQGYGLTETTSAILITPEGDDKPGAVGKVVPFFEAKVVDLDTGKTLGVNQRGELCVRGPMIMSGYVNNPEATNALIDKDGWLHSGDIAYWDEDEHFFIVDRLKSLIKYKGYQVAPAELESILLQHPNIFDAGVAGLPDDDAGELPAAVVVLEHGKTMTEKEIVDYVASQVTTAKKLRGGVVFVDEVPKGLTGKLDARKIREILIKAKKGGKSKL
T3 sequence (P08659 whole entry H245N): as the sequence (P08659 whole entry A215L) above, with L215A, H245N counted along it
T2 sequence (P08659 whole entry H245A): as the sequence (P08659 whole entry A215L) above, with L215A, H245A counted along it
T4 sequence (P08659 whole entry H245Q): as the sequence (P08659 whole entry A215L) above, with L215A, H245Q counted along it
T1 sequence (P08659 whole entry): as the sequence (P08659 whole entry A215L) above, with L215A counted along it

As for `Nc1ncnc2c1ncn2[C@@H]1O[C@H](COP(=O)(O)OP(=O)(O)OP(=O)(O)O)[C@@H](O)[C@H]1O` [MgATP], the Km in assay [1] came out at 66 µM; in assay [2], 442 µM; in assay [3] it was 623 µM; in assay [4], 1340 µM; in assay [5], 65 µM.

These data come from patent US6265177A, “Enzyme assay for mutant firefly luciferase” (priority 1997, dated 2001).
